One test deals with Plasminogen (Homo sapiens, UniProt P00747). The test is described as follows: In vitro ability to inhibit the activity of Plasmin.
Another test has as its target T1, Serine protease 1 (Bos taurus, UniProt P00760).
T1 sequence (P00760 whole entry): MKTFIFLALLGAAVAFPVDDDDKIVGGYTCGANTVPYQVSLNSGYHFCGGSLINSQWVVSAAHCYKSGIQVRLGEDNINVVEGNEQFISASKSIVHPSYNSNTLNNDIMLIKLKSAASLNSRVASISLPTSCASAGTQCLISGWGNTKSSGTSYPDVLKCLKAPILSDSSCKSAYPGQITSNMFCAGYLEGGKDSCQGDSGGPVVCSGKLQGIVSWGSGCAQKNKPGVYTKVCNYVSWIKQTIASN
The test is described as follows: In vitro ability to inhibit the activity of Trypsin.

Another test has as its target Prothrombin (Homo sapiens, UniProt P00734). Description: In vitro ability to inhibit the activity of human alpha Thrombin.

The structures appear in SMILES notation. Where a SMILES comes first, the peptide text is derived from it. [ ]: non-standard residue; d: D form. The star is where a group is joined. dNMePhg = CN[C@@H](C(=O)O)c1ccccc1; PhAc = O=C(Cc1ccccc1)*

Plasminogen, sequence (P00747 97-580 limits assumed): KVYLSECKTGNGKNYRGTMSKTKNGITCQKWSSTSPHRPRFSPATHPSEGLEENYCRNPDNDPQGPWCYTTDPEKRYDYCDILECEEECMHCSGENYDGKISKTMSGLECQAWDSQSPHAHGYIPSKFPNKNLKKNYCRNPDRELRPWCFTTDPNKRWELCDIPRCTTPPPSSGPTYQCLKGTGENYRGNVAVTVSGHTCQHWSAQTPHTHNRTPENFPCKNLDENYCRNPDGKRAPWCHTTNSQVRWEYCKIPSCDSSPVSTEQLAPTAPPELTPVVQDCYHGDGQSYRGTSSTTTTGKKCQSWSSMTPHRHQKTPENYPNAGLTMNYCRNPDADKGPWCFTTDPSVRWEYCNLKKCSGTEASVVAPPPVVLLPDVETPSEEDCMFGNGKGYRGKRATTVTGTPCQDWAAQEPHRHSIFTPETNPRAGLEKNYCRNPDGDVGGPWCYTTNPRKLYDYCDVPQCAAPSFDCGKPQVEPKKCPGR
Plasminogen, sequence (P00747 581-810 limits assumed): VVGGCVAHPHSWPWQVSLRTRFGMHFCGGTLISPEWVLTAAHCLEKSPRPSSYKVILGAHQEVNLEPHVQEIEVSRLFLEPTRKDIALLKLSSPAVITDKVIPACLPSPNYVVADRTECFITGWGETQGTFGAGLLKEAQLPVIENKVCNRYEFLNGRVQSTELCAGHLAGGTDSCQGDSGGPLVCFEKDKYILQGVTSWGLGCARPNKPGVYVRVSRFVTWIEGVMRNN

Regarding `CN[C@H](Cc1ccccc1)C(=O)N1CCC[C@H]1C(=O)N[C@H](C=O)CCCN=C(N)N`, the concentration for half-maximal inhibition (IC50) against Plasminogen was found to be 0.5 µM; against Serine protease 1 it was 0.02 µM.
On Prothrombin, `CC(=O)N[C@@]1(Cc2ccccc2)CC[C@H]2CC[C@@H](C(=O)N[C@H]3CCCN(C(=N)N)C3O)N2C1=O` (stereo partly specified) came in with an IC50 of 3.9 µM.
With `CC1CNc2c(cccc2S(=O)(=O)N[C@H]2CCC[C@H]3CC[C@@H](C(=O)N[C@H]4CCCN(C(=N)N)C4O)N3C2=O)C1` (stereo partly specified), the values for the IC50 against Prothrombin, against Plasminogen and against Serine protease 1 were 0.018 µM, 1.04 µM and 0.1 µM, respectively.
As for `N=C(N)N1CCC[C@H](NC(=O)[C@@H]2CC[C@@H]3CCC(Cc4ccccc4)C(=O)N32)C1O` (stereo partly specified), on Prothrombin, the IC50 was 4.6 µM.
Regarding `N=C(N)N1CCC[C@H](NC(=O)[C@@H]2CC[C@@H]3CCC[C@H](NS(=O)(=O)Cc4ccccc4)C(=O)N32)C1O` (stereo partly specified), the IC50 against Prothrombin was 0.11 µM; against Plasminogen, 10 µM.
Regarding `CC(=O)N[C@H]1CCC[C@H]2CC[C@@H](C(=O)N[C@H]3CCCN(C(=N)N)C3O)N2C1=O` (stereo partly specified), the IC50 against Prothrombin amounted to 4.3 µM; against Plasminogen, 74 µM; at Serine protease 1 it was 24 µM.
For `N=C(N)N1CCC[C@H](NC(=O)[C@@H]2CC[C@@H]3CCC[C@H](NS(=O)(=O)c4cccc5ccccc45)C(=O)N32)C1O` (stereo partly specified), the figures for the IC50 against Prothrombin and at Plasminogen were 0.11 µM and 10 µM, respectively.
The compound `N=C(N)N1CCC[C@H](NC(=O)[C@@H]2CC[C@@H]3CCCC(Cc4ccccc4)C(=O)N32)C1O` (stereo partly specified) displayed an IC50 against Prothrombin of 1.4 µM.
Regarding `CN[C@@H](C(=O)N1CCC[C@H]1C(=O)N[C@H](C=O)CCCNC(=N)N)c1ccccc1` (H-[dNMePhg]-Pro-Arg-aldehyde), it took 0.026 µM to reach half-maximal inhibition at Prothrombin (IC50).
For `N=C(N)NCCC[C@@H](C=O)NC(=O)[C@@H]1CCCN1C(=O)Cc1ccccc1` (PhAc-Pro-Arg-aldehyde), the IC50 against Prothrombin worked out at 1.6 µM; against Plasminogen it was 41 µM; against Serine protease 1, 7.2 µM.
In the case of `CC1CNc2c(cccc2S(=O)(=O)N[C@@H](CCCNC(=N)N)C(=O)N2CCC(C)C[C@@H]2C(=O)O)C1` (single isomer, unassigned) [ARGATROBAN], the IC50 against Plasminogen turned out to be 800 µM; at Serine protease 1, 5 µM.

The term IC50 denotes the concentration needed to halve the response being measured. The low end stands for inhibition by little substance, the high end for a need for much substance.

Source of the values: ChEMBL document CHEMBL1130514, “Design and synthesis of conformationally constrained arginal thrombin inhibitors” (Bioorg Med Chem Lett, 1997).
